Laboratory results from PubChem BioAssay (NCI).
Where “and” joins values, the source holds several entries; their conditions need not be identical. Equal entries are not always repeated.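 96-well plates; 48 h exposure; 5 concentrations. Endpoints by linear interpolation between flanking doses. Not reached: highest tested concentration assigned. GI50 is the concentration that inhibits growth by half. TGI denotes the concentration required for complete inhibition of growth.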

Columns and labels:
Assay in all cases: DTP human tumour cell line panel, 48 h
[1] = system: SK-MEL-5 melanoma
[2] = system: HCT-15 colon
[3] = system: U251 CNS
[4] = system: HCC-2998 colon
[5] = system: COLO 205 colon
[6] = system: RXF 393 renal
[7] = system: SK-OV-3 ovarian
[8] = system: OVCAR-5 ovarian
[9] = system: NCI-H226 lung
[10] = system: SF-539 CNS

Compound	TGI [1] [µM]	TGI [2] [µM]	TGI [3] [µM]	TGI [4]	TGI [5] [µM]	TGI [6] [µM]	TGI [7]	TGI [8] [µM]	TGI [9] [µM]	TGI [10] [µM]	GI50 [2] [µM]	GI50 [3] [µM]	GI50 [4] [µM]	GI50 [5] [µM]	GI50 [6]	GI50 [7]	GI50 [9] [µM]	GI50 [10] [µM]	GI50 [1]	GI50 [8]
O=C1NC2(NC(=O)C1=O)Nc1ccccc1S2	> 100	> 59.5	> 82.5	> 100 µM	> 54.9	> 100	> 100 µM	> 100	> 100	62.7										
Nc1nccc2c1ncn2C1C=C(CO)C(O)C1O (stereo unspecified)	> 1000	> 1000	> 1000	> 1000 µM	> 1000	> 1000	> 1000 µM	> 54.1	> 1000	> 1000	226	1.61	3.28	7.35	851 µM	> 1000 µM	> 1000	711		
Cc1ccc([S+](c2ccccc2)c2cc(C)ccc2C)cc1 (stereo unspecified)	3.91			28.5 µM	61.2					> 100										
O=[P+](O)c1cccs1	> 100	> 100	> 100		> 100	> 100	> 100 µM			> 100										
Oc1ccc(NCc2cc(O)ccc2O)cc1	38.9	36.8	29.5	30.8 µM	62.3	28.8	36.7 µM	35.9	50.4	56.4										
O=NN(CCCl)C(=O)Nc1ccc(Cl)c(Cl)c1	> 100	> 100	> 100	> 100 µM	> 100	> 100	> 100 µM	> 100	> 100	> 100										
COC[C@@H]1Cc2cc(OC)c3c(c2[C@H](c2ccc(OC)c(OC)c2)[C@H]1COC)OCO3		> 100	> 100	> 100 µM	> 100	> 100	> 100 µM	> 100		> 100										
CCOC(=O)c1c(SC)nc(-c2ccc(Cl)cc2)sc1=N	38.8	73.9	> 100	63.9 µM	44.9	> 100	> 100 µM	> 100	80.4	> 100										
COc1cc(CCC(=O)O)c2cc3ccccc3cc2c1O	28.4	43.9	29.9	65.2 µM	36.2		> 100 µM	45.9	78											
O=C1CC(NCCCNC2CC(=O)c3c(Br)sc(Br)c32)c2c(Br)sc(Br)c21 (stereo unspecified)	6.04	3.56	2.82		5.89	3.62	14.9 µM	4.85	12.6	8.56										
CC(=O)C1=C(C)N(c2ccc(C)cc2)C2(O)C=CC(=O)C3=C(O)c4ccccc4C(=O)C312 (stereo unspecified)	26.3	> 100	69.6	42.2 µM	> 100	> 100	> 100 µM	56.2	64.4	97.6										
Nc1cccc(/C=C/CN2CCN(CCOC(c3ccccc3)c3ccccc3)CC2)c1	26.8	26.1	30.5	11.9 µM	20.9	25.5	27 µM	30.5	40.4	31.7										
CC1C(O)[C@@]2(OC[C@@]34C(=O)CC5(O)[C@H](CCC6Cc7nc8c(nc7C[C@]65C)CC5CC[C@@H]6C7=C[C@H]9O[C@@]%10(O[C@@](C)(CO)C[C@@H]%10O)C(C)[C@@]9(O)[C@]7(C)[C@@H](O)CC6[C@]5(C)C8)C3=CC[C@H]4C2C)OC1(C)C (stereo partly specified)	0.415	0.379	0.101	> 3.55 µM	0.361	< 0.000355	0.274 µM	0.0795	> 3.55	0.00487										
Cc1ccc(NC(=O)CC(=O)n2nc(-c3ccccc3)c(N=Nc3ccccc3C(=O)O)c2-c2ccccc2)cc1	> 100	> 100		> 100 µM	> 100	> 100	> 100 µM	> 100	> 100	> 100										
COc1cccc2c1C(=O)c1c(O)c3c(c(O)c1C2=O)C[C@@](O)(C(C)=O)C[C@@H]3OC1CC(N(C)C)C(O)C(C)O1 (stereo partly specified)				0.27 µM and 0.205 µM			3.17 µM and 3.85 µM				0.0211	0.0451		0.0133	0.0487 µM and < 0.0151 µM	0.144 µM and 0.115 µM	0.00108	0.0173	0.0368 µM and < 0.0109 µM	0.0266 µM and 0.0147 µM
CN(CCNC(=O)c1cn(C)c2c1ccc1cc(Cl)ccc12)CCNC(=O)c1cn(C)c2c1ccc1cc(Cl)ccc12	> 26.9	3.3	> 100		2.57			4.41	77.8	9.35										
